Results on 27 compounds are retold here after EP0490549B1, “Stabilisation of pharmaceutical compositions comprising calcitonin” (CIBA-GEIGY AG, priority 1990, dated 1995).

Data set [1] in a line: Stability of aqueous hCT solutions against fibrillation or precipitation (solution remains clear on storage). Particulars: for solution is stable for: Example 1 repeated (5 mg/ml hCT) with acetic acid replaced by the named acid; for ability of an acid to produce a stable solution of hCT (solution remains clear): storing for 24 hours at 25°C. As for the experimental part:
The ability of an acid to produce a stable solution can be readily determined by making up a solution and storing it for 24 hours at 25°C.
Example 1 is repeated except that the solutions also contain 0.5% hydroxypropylmethylcellulose.

Data set [2] is described as follows: Extrapolated time of fibrillation (ln/ln plot of fibrillation time against hCT concentration). Particulars: at 4°C; solutions with 5-9 mg/ml hCT in 0.001% acetic acid; from measurements up to 100 mg/ml hCT using the ln/ln plot.
The nature of data set [3]: Stability of aqueous hCT solutions against fibrillation or precipitation (solution remains clear on storage). Particulars: 5 mg/ml hCT; acetic acid 0.0001%, 0.001%, 0.01%, 0.1% and 1.0%; after 8 months. In kind it is physicochemical.
The mark [4] stands for this setting: additive mixed with the hCT solution after preparation.

Entries after “also recorded” stand apart in the source; their conditions may differ. Like-named read-outs stand apart in the source and are kept apart here.

With `O=C(O)C(O)C(O)C(=O)O` (racemic) [DL-tartaric acid], in data set [1], the “solution is stable for” value is recorded as “over 4 days” and the “ability of an acid to produce a stable solution of hCT (solution remains clear)” value (shortened to “ability of an acid … (solution remains clear)”) is “form stable solutions”.

For `N[C@H](CCC(=O)O)C(=O)O` [D-glutamic acid], the “ability of an acid … (solution remains clear)” value in data set [1] was “do not form stable solutions”.

`N[C@@H](CCC(=O)O)C(=O)O` [L-glutamic acid]: the “solution is stable for” value in data set [1] is listed as “over 4 days”.

Turning to `O=C(O)C(O)C(O)C(=O)O` [L-α-tartaric acid], in data set [1], the “solution is stable for” value was “over 4 days” and the “ability of an acid … (solution remains clear)” value is “form stable solutions”.

As to `O=C(O)CCCCC(=O)O` [adipic acid], in data set [1], the “solution is stable for” value is “over 4 days” and the “ability of an acid … (solution remains clear)” value is reported as “form stable solutions”.

In the case of `O=C1O[C@H]([C@@H](O)CO)C(O)=C1O` [ascorbic acid], in data set [1], the “solution is stable for” value is given as “over 4 days” and the “ability of an acid … (solution remains clear)” value is listed as “form stable solutions”.

Consider `N[C@@H](CC(=O)O)C(=O)O` [aspartic acid], for which the “ability of an acid … (solution remains clear)” value in data set [1] is “do not form stable solutions”.

Regarding `CC(C)(C)CC(C)(C)c1ccc(OCCOCC[N+](C)(C)Cc2ccccc2)cc1` [benzethonium chloride], in data set [1] (setting [4]), the “effect of additive on the stability of the hCT solution” value (“effect of additive” below) is listed as “do not diminish the stability; also recorded: improve the stability”.

Regarding `[H]/N=C(\N/C(=N/[H])NCCCCCCNC(=N)NC(=N)Nc1ccc(Cl)cc1)Nc1ccc(Cl)cc1` [chlorhexidine diacetate], the “effect of additive” value in data set [1] is listed as “do not diminish the stability”.

Take `O=C(O)CC(O)(CC(=O)O)C(=O)O` [citric acid]: in data set [1], the “solution is stable for” value is given as “over 4 days” and the “ability of an acid … (solution remains clear)” value was “form stable solutions”.

Take `CCO` [ethanol]: the “effect of additive” value in data set [1] is on record as “do not diminish the stability”.

Regarding `O=C(O)CN(CCN(CC(=O)O)CC(=O)O)CC(=O)O` [ethylene - diamine tetraacetic acid], in data set [1], the “ability of an acid … (solution remains clear)” value is recorded as “form stable solutions”.

In the case of `O=CO` [formic acid], in data set [1], the “solution is stable for” value is “over 4 days” and the “ability of an acid … (solution remains clear)” value was “form stable solutions”.

`O=C(O)[C@H](O)[C@@H](O)[C@H](O)[C@H](O)CO` [gluconic acid]: the “ability of an acid … (solution remains clear)” value in data set [1] was “do not form stable solutions”.

On to `O=C(O)CCCC(=O)O` [glutaric acid], for which, in data set [1], the “solution is stable for” value is given as “over 4 days” and the “ability of an acid … (solution remains clear)” value is reported as “form stable solutions”.

With `CC[C@H](C)[C@H](NC(=O)[C@H](C)NC(=O)[C@@H](NC(=O)[C@H](CCC(N)=O)NC(=O)[C@@H]1CCCN1C(=O)[C@H](Cc1ccccc1)NC(=O)[C@@H](NC(=O)[C@H](Cc1c[nH]cn1)NC(=O)[C@H](Cc1ccccc1)NC(=O)[C@H](CCCCN)NC(=O)[C@H](CC(N)=O)NC(=O)[C@H](Cc1ccccc1)NC(=O)[C@H](CC(=O)O)NC(=O)[C@H](CCC(N)=O)NC(=O)[C@@H](NC(=O)[C@H](Cc1ccc(O)cc1)NC(=O)[C@@H](NC(=O)CNC(=O)[C@H](CC(C)C)NC(=O)[C@H](CCSC)NC(=O)[C@@H]1CSSC[C@H](N)C(=O)NCC(=O)N[C@@H](CC(N)=O)C(=O)N[C@@H](CC(C)C)C(=O)N[C@@H](CO)C(=O)N[C@@H]([C@@H](C)O)C(=O)N1)[C@@H](C)O)[C@@H](C)O)[C@@H](C)O)[C@@H](C)O)C(=O)NCC(=O)N[C@H](C(=O)NCC(=O)N[C@@H](C)C(=O)N1CCC[C@H]1C(N)=O)C(C)C` [hCT], in data set [2], the stability predicted entry is “more than 5 years”. Besides, the stability of solution entry in data set [3] was “stable and perfectly clear”.

As for `Cl` [hydrochloric acid], in data set [1], the “solution is stable for” value was “over 4 days” and the “ability of an acid … (solution remains clear)” value is recorded as “form stable solutions”.

Take `OC[C@H]1O[C@@H](O[C@H]2[C@H](O)[C@@H](O)C(O)O[C@@H]2CO)[C@H](O)[C@@H](O)[C@H]1O` (stereo partly shown) [lactose]: in data set [1], the “effect of additive” value is “do not diminish the stability”.

Regarding `O=C(O)/C=C\C(=O)O` [maleic acid], the “ability of an acid … (solution remains clear)” value in data set [1] is recorded as “do not form stable solutions”.

Regarding `O=C(O)CC(=O)O` [malonic acid], in data set [1], the “solution is stable for” value was “over 4 days” and the “ability of an acid … (solution remains clear)” value is reported as “form stable solutions”.

With `OC[C@@H](O)[C@@H](O)[C@H](O)[C@H](O)CO` [mannitol], in data set [1], the “effect of additive” value is given as “do not diminish the stability”.

Take `Oc1ccccc1` [phenol]: in data set [1], the “ability of an acid … (solution remains clear)” value was “form stable solutions”.

In the case of `O=C(O)CCC(=O)O` [succinic acid], the “solution is stable for” value in data set [1] is “over 4 days”.

As for `OC[C@H]1O[C@@](CO)(O[C@H]2O[C@H](CO)[C@@H](O)[C@H](O)[C@H]2O)[C@@H](O)[C@@H]1O` [sucrose], the “effect of additive” value in data set [1] is given as “do not diminish the stability”.

Consider `OC[C@H]1O[C@H](O[C@H]2O[C@H](CO)[C@@H](O)[C@H](O)[C@H]2O)[C@H](O)[C@@H](O)[C@@H]1O` [trehalose], for which the “effect of additive” value in data set [1] is given as “do not diminish the stability”.

For benzalkonium chloride, the “effect of additive” value in data set [1] (setting [4]) is listed as “do not diminish the stability”.

Turning to sulphuric acid, the “ability of an acid … (solution remains clear)” value in data set [1] was “do not form stable solutions”.
